Like-named read-outs stand apart in the source and are kept apart here. Values belong to the compound of their own block, whether it stands above or below them.
System: AML samples (live leukemic cells from bone marrow or peripheral blood of patients)
Experiment: Ex-vivo effect on AML patient samples (depletion of live leukemic cells, flow cytometry, Annexin V)
Type: cell-based, human
Method: Patient samples were obtained from a non-interventional and prospective study. The study included samples from adult patients over 18 years of age who were diagnosed with Acute Myeloid Leukemia (AML).
In one embodiment, the method of data acquisition was performed as follows: on day 1 bone marrow (BM) or peripheral blood (PB) patient sample was received. A small part was separated from the rest of the sample for validation, while the majority of the sample was diluted with culture media and plated into 96-well plates previously prepared with the desired compounds and compound combinations, e.g., a compound or compound combination described herein. The number of live leukemic cells seeded in each well was fixed between 8000 and 32000, depending on the percentage of leukemic cells for each sample. […] Antibodies were added to identify leukemic cells using a gating strategy based on FSC/SSC and expression or lack of expression of different surface markers. The monoclonal antibodies selection was performed to optimize the identification of leukemic cell in each sample.
In one embodiment, non-limiting examples of biomarkers such as the biomarkers CD34, CD45, CD117, and HLADR known as “backbone markers” for AML (van Dongen, J. J. and A. Orfao, EuroFlow: Resetting leukemia and lymphoma immunophenotyping. Basis for companion diagnostics and personalized medicine, Leukemia, 2012, 26, 1899-907) were included in the combination.
In one embodiment, antibody combinations such as CD117/CD45, CD34/CD45, and HLADR/CD45 were used. Live leukemic cells were identified by their light scatter properties (FSC^int/hi/SSC^int) in the absence of Annexin-V-FITC staining. FSC/SSC selection was performed to exclude debris. The average percentage of cell viability upon receipt of the sample was 80% and samples were only processed if the viability was greater than 50%.
In one embodiment, sample validation was performed as follows: BM and PB samples were extracted under sterile conditions and received in the laboratory within 24 hours of extraction. Initial analysis evaluated the number of pathological cells and their viability. Different volumes of sample (1 μL, 3 μL, 5 μL and 7 μL) were aliquoted in duplicate into a 96-well plate. To lyse red blood cells, 180 μL of ammonium chloride lysis solution was added to each well (2 g KHCO3, 16.58 g NH4Cl, 0.074 g Na2EDTA2.H2O, H2O to […]). Following a 10 min incubation period at 4° C., plate was centrifuged for 5 min at 1200 rpm and the supernatant removed. The lysis step was performed twice. To analyze, 20 μL of a combination of Annexin V-FITC (Immunostep, Salamanca, Spain), binding buffer (BB, 2.4 g HEPES, 8.19 g NaCl, 0.37 g Cl2Ca, H2O to […]), and the following monoclonal antibodies (mAb) were added to each well: CD117 (clone 104D2)-PE (Becton Dickinson, San Jose, Calif., US), CD34 (clone 581)-PerCP (BioLegend, San Diego, Calif., US), HLADR (clone L243)-PB (BioLegend) and CD45 (HI30)-PO (Life Technologies, Carlsbad, Calif., US) (van Dongen, J. J., et al., EuroFlow antibody panels for standardized n-dimensional flow cytometric immunophenotyping of normal, reactive and malignant leukocytes, Leukemia, 2012, 26, 1908-75). After 15 min of incubation at room temperature in the dark, a wash step was performed using binding buffer solution. The pellet was resuspended in 30 μL BB for analysis in Vivia's ExviTech© platform. Cell count and viability upon arrival were computed and the optimal volume of sample to use per well was determined.
In one embodiment, the assay was performed according to following method: the whole sample was diluted with RPMI 1640, supplemented with 20% (v/v) FBS (Thermo Scientific, Waltham, Mass., US), 2% HEPES, 1% antibiotic (Zell Shield, Labclinics, Barcelona, Spain) and 1% L-glutamine 200 mM (Lonza, Hopkinton, Mass., US) to a final volume of 60 μL per well. […]

[1] = Homo sapiens, 72 h, plates incubated for 72 hours
[2] = Homo sapiens, 72 h, plates incubated for 72 hours, read-out: Emax
[3] = Homo sapiens, 48 h, plates incubated for 48 hours
[4] = Homo sapiens, 48 h, plates incubated for 48 hours, read-out: Emax

EC50 [1]: 1 to 10 µM
SMILES: COC(=O)COP(=O)(N[C@@H](CC(C)C)C(=O)OC)OC[C@H]1O[C@@H](n2cnc3c(N)nc(Cl)nc32)C(F)C1O (single isomer, unassigned) [drawing 659]
Emax [2]: > 20%

EC50 (plates incubated for 72 hours): 1 to 10 µM
SMILES: COC(=O)COP(=O)(N[C@@H](CC(C)C)C(=O)OC)OC[C@H]1O[C@@H](n2cnc3c(N)nc(Cl)nc32)C(F)C1O (single isomer, unassigned) [drawing 660]
Emax (plates incubated for 72 hours): B (B=10-20%)

EC50 (plates incubated for 72 hours): 1 to 10 µM
SMILES: COC(=O)COP(=O)(N[C@@H](CC(C)C)C(=O)OC)OC[C@H]1O[C@@H](n2ccc(N)nc2=O)C(O)C1O (single isomer, unassigned) [drawing 662]
Emax (plates incubated for 72 hours): B (B=10-20%)

EC50 (plates incubated for 72 hours): 10 to 20 µM
SMILES: COC(=O)COP(=O)(N[C@@H](CC(C)C)C(=O)OC)OC[C@H]1O[C@@H](n2ccc(N)nc2=O)C(O)C1O (single isomer, unassigned) [drawing 663]
Emax (plates incubated for 72 hours): A (A=0-10%)

EC50 [1]: 1 to 10 µM
SMILES: CCOC(=O)[C@H](CC(C)C)NP(=O)(OCC(=O)OC)OC[C@H]1O[C@@H](n2ccc(N)nc2=O)C(O)C1O (single isomer, unassigned) [drawing 664]
Emax [2]: 0 to 10%

EC50 (plates incubated for 72 hours): 1 to 10 µM
SMILES: CCOC(=O)[C@H](CC(C)C)NP(=O)(OCC(=O)OC)OC[C@H]1O[C@@H](n2ccc(N)nc2=O)C(O)C1O (single isomer, unassigned) [drawing 665]

EC50 [1]: 1 to 10 µM
SMILES: Cn1c(COP(=O)(NCc2ccccc2)OC[C@H]2O[C@@H](n3ccc(N)nc3=O)C(O)C2O)cnc1[N+](=O)[O-] (single isomer, unassigned) [drawing 666]
Emax [2]: 0 to 10%

EC50 (plates incubated for 72 hours): 1 to 10 µM
SMILES: Cn1c(COP(=O)(NCc2ccccc2)OC[C@H]2O[C@@H](n3ccc(N)nc3=O)C(O)C2O)cnc1[N+](=O)[O-] (single isomer, unassigned) [drawing 667]

Further lines, the compound ahead of its results:

SMILES: CC(C)(CO)C(=O)SCCOP(=O)(NCc1ccccc1)OC[C@H]1O[C@@H](n2cnc3c(N)nc(Cl)nc32)C(F)C1O (single isomer, unassigned) [drawing 658]
EC50 (plates incubated for 72 hours): 1 to 10 µM
Emax (plates incubated for 72 hours): B (B=10-20%)

SMILES: CCOC(=O)[C@H](CC(C)C)NP1(=O)OC[C@H]2O[C@@H](n3cnc4c(N)nc(F)nc43)[C@@H](O)[C@@H]2O1 (single isomer, unassigned) [drawing 672]
EC50 [3]: 10 to 20 µM
Emax (plates incubated for 48 hours): C (C>20%)

SMILES: CCOC(=O)[C@H](CC(C)C)NP1(=O)OC[C@H]2O[C@@H](n3cnc4c(N)nc(F)nc43)[C@@H](O)[C@@H]2O1 (single isomer, unassigned) [drawing 673]
EC50 (plates incubated for 48 hours): ≥ 20 µM
Emax (plates incubated for 48 hours): A (A=0-10%)

SMILES: CC(C)OP1(=O)OC[C@H]2O[C@@H](N3C=NC4C(N)=NC(F)=NC43)[C@@H](O)[C@@H]2O1 (single isomer, unassigned) [drawing 675]
EC50 [3]: 10 to 20 µM
Emax [4]: > 20%

SMILES: CC(C)OP1(=O)OC[C@H]2O[C@@H](N3C=NC4C(N)=NC(F)=NC43)[C@@H](O)[C@@H]2O1 (single isomer, unassigned) [drawing 676]
EC50 (plates incubated for 48 hours): ≥ 20 µM
Emax (plates incubated for 48 hours): C (C>20%)

SMILES: CCOC(=O)[C@H](C)NP1(=O)OC[C@H]2O[C@@H](n3cnc4c(N)nc(F)nc43)[C@@H](O)[C@@H]2O1 (single isomer, unassigned) [drawing 680]
EC50 [3]: 10 to 20 µM
Emax [4]: > 20%

SMILES: CCOC(=O)[C@H](C)NP1(=O)OC[C@H]2O[C@@H](n3cnc4c(N)nc(F)nc43)[C@@H](O)[C@@H]2O1 (single isomer, unassigned) [drawing 681]
EC50 (plates incubated for 48 hours): 10 to 20 µM

Source: patent US20170101431A1, “NUCLEOSIDE DERIVATIVES FOR THE TREATMENT OF CANCER” (IDENIX PHARMACEUTICALS LLC, priority 2014, published 2017)
